From article PMC3795776, “Alpha-Helical Destabilization of the Bcl-2-BH4-Domain Peptide Abolishes Its Ability to Inhibit the IP3 Receptor” (PLoS ONE, 2013)

B1: Bcl-2-BH4 peptide (peptide)
peptide: RTGYDNREIVMKYIHYKLSQRGYEW

Key:
[1] = CD spectroscopy, α-helical content (CONTIN/LL deconvolution); type: physicochemical; conditions: 50 µM peptide in 97.5% TFE / 2.5% methanol, 25 °C, 190-260 nm, ten scans, CDPro CONTIN/LL
Procedure: CD spectra (Jasco J-810 circular dichroism spectropolarimeter, USA) were recorded at 1 nm intervals over the 190-260 nm wavelength range using 1 mm path length quartz cells (Hellma, Germany). Ten scans were performed. The experiments were run at 20 nm/min and the temperature was fixed at 298^° K (25 °C). The secondary structure of the peptide (50 µM) was determined in 97.5% 2,2,2-trifluoroethanol (TFE) and 2.5% methanol. The ellipticity is calculated per mole of amino-acid residue. To estimate the secondary structure of the peptide in terms of α-helical content, an analysis of the relevant CD spectra was carried out using the CDPro software (http://lamar.colostate.edu/~sreeram/CDPro/main.html) developed by Woody and coworkers. The basis set 10 of the CDPro software was used. The analysis was performed using the CONTIN/LL [31], a self-consistent method with an incorporated variable selection.

[2] = tested on: IP3R-mediated Ca2+ release in permeabilized MEF cells; experiment: Unidirectional 45Ca2+-flux assay, IP3-induced Ca2+ release (IICR); type: cell-based, mouse; conditions: result in words; for effect on IP3R-mediated Ca2+ release at 50 µM peptide: 3 µM IP3, 50 µM peptide
Procedure: ^45Ca^2+-unidirectional flux experiments were performed as previously described. Twelve-well clusters containing MEF cells were fixed on a thermostated plate at 30 °C on a mechanical shaker. The culture medium was aspirated, and the cells were permeabilized by incubating them for 10 min in a solution containing 120 mM KCl, 30 mM imidazole-HCl (pH 6.8), 2 mM MgCl2, 1 mM ATP, 1 mM EGTA and 20 µg/ml saponin. The non-mitochondrial Ca^2+ stores were then loaded for 45 min in 120 mM KCl, 30 mM imidazole-HCl (pH 6.8), 5 mM MgCl2, 5 mM ATP, 0.44 mM EGTA, 10 mM NaN3 to prevent mitochondrial Ca^2+ uptake, and 150 nM free ^45Ca^2+ (28 µCi/ml). Then, 1 ml of efflux medium containing 120 mM KCl, 30 mM imidazole-HCl (pH 6.8) and 1 mM EGTA was added and replaced every 2 min. IP3 (3 µM) was added for 2 min after 10 min of efflux. At the end of the experiment, all ^45Ca^2+ remaining in the stores was released by incubation with 1 ml of a 2% (w/v) sodium dodecyl sulfate solution for 30 min. Ca^2+ release was plotted as fractional loss (% / 2 min) as a function of time as previously described. The effect of the BH4-domain peptides on IICR was tested by pre-incubating the peptides for 4 min before exposing the stores to IP3.

[3] = target: GST-Dom3 IP3R1 (GST fused to IP3R1 Domain 3, aa 923-1581) (mouse, UniProt P11881 923-1581); experiment: cell-based or functional assay
GST-Dom3 IP3R1 (GST fused to IP3R1 Domain 3, aa 923-1581), sequence (P11881 923-1581): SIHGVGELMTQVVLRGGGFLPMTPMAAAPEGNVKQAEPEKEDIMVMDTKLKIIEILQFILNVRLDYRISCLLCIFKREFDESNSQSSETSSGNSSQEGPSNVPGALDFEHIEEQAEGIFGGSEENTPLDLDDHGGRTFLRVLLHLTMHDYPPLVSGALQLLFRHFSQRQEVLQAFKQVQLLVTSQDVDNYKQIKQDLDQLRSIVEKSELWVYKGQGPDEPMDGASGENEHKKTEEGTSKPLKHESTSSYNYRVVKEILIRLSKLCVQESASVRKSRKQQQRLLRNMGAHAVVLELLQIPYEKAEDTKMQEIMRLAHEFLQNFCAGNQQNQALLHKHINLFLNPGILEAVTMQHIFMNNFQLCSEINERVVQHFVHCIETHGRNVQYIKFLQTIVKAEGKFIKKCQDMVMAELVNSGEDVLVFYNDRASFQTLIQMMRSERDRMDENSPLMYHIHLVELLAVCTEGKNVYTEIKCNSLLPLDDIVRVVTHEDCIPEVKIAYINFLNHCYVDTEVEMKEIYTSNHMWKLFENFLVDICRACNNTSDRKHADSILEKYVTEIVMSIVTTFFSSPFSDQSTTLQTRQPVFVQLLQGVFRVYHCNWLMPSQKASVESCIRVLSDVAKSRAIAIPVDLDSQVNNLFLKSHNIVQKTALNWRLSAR

| Molecule | α-helical content [1] | effect on IP3R-mediated Ca2+ release at 50 µM peptide [2] | effect on IICR, concentration-response ([2]; 3 µM IP3, peptide 0.1-100 µM, 3 independent experiments) | IC50 of inhibition of IP3-induced Ca2+ release (IICR), unidirectional 45Ca2+ flux in permeabilized MEF cells, 3 µM IP3, peptide 0.1-100 µM [3] |
| --- | --- | --- | --- | --- |
| RTGYDNREGVMKYGHYKLSQRGYEW [Bcl-2-BH4 II/GG, Bcl-2-BH4 peptide with glycines at positions I14/I19] | 32% | lost their ability to inhibit IP3R-mediated Ca^2+ release |  |  |
| WYEKQRSLHGIMYYVIEDRNTKGYR [Bcl-2-BH4 SCR, scrambled version of the Bcl-2-BH4 peptide, reference compound] |  |  | neither Bcl-2-BH4 IV/GG (Figure 3A-B) nor the scrambled version of the Bcl-2-BH4 peptide (Bcl-2-BH4 SCR) (Figure 3B) significantly affect IICR |  |
| RTGYDNREIGMKYGHYKGSQRGYEW [Bcl-2-BH4 VIL/GGG, Bcl-2-BH4 peptide with glycines at positions V15/I19/L23] | 17.7% | lost their ability to inhibit IP3R-mediated Ca^2+ release |  |  |
| B1 |  |  |  | ~30 µM |
